The source made the active and inactive calls.

Assay [1] deals with Phosphoethanolamine/phosphocholine phosphatase (Homo sapiens, UniProt Q8TCT1). The assay is described as follows: SAR assay for compounds that inhibit PHOSPHO1. [Related pubchem assays (depositor defined):AID1545, AID1565, AID1574].
Assay [2] has as its target T1, Mannose-6-phosphate isomerase (Homo sapiens, UniProt P34949).
T1 sequence (P34949 whole entry): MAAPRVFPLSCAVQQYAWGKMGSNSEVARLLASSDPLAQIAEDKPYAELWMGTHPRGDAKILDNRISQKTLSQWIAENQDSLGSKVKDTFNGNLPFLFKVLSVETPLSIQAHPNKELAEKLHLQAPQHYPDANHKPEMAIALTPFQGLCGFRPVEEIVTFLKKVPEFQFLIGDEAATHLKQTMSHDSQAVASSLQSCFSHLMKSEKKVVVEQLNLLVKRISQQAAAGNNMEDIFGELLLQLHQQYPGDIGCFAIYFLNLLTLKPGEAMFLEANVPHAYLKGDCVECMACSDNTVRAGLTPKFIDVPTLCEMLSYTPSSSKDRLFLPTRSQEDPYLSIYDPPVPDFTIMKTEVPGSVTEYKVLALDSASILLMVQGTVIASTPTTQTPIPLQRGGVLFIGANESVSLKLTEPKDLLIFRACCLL
The assay is described as follows: phosphomannose isomerase inhibition – biochemical, fluorescence intensity, confirmation (AID 1535).

Assay [3] has as its target T2, Carboxy-terminal domain RNA polymerase II polypeptide A small phosphatase 1 (Homo sapiens, UniProt Q9GZU7).
T2 sequence (Q9GZU7 whole entry): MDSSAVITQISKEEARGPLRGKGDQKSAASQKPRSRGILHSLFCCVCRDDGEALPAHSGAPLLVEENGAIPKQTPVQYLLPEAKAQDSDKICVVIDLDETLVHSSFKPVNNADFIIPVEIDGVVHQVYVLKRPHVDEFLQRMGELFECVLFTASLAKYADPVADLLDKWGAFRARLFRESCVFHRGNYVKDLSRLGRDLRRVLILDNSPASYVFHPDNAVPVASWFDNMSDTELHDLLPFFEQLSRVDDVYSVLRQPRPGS
The assay is described as follows: CTDSP1 inhibitors, concentration-response, biochemical, absorbance readout, ultra-high-throughput screen actives (AID 540297). Format: functional.

For assay [4], the target named is Eukaryotic translation initiation factor 4E (Mus musculus, UniProt P63073). The experiment in a line: blockers of eIF4G binding by eIF4E – biochemical, TR-FRET, dose response (AID 855).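 Also: potency for disrupting eIF4E binding to eIF4GI seen as loss of FRET.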 The class given is functional. (In general: In TR-FRET formats the signal depends on donor and acceptor labels being close together.)
Assay [5] deals with Glucose-6-phosphate 1-dehydrogenase (Homo sapiens, UniProt P11413). The experiment in a line: inhibition of Homo sapiens G6PD, dose series – biochemical, fluorescence, selectivity assay for P. falciparum G6PD inhibitor project, dose response (AID 504792). The class given is functional.
In a further assay the target is T3, Phosphomannomutase 2 (Homo sapiens, UniProt O15305).
T3 sequence (O15305 whole entry): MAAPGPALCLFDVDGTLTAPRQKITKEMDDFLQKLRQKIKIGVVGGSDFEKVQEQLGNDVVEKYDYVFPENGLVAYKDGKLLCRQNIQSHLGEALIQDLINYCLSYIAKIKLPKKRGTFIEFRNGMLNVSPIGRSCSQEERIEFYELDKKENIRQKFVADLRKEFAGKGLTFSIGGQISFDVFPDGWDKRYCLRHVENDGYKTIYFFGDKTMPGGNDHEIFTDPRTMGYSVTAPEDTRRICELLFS
The assay is described as follows: Counter screen SAR assay for PMM2 inhibitors via a fluorescence intensity assay. [Related pubchem assays (depositor defined):AID1545, AID1574]. On the technique in general: The purpose of a counterscreen is to sort out artefacts and off-target activity.

Another assay has as its target Large T antigen (Simian virus 40, UniProt P03070). Format: functional, Betapolyomavirus macacae.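 Also: Confirmatory-stage PubChem screen for compounds that inhibit SV40 T antigen.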
For another assay, the target named is Protein Rev (Human immunodeficiency virus type 1 group M subtype B (isolate HXB2)(HIV-1), UniProt P04618). The experiment in a line: blockers of HIV Rev/RRE RNA complex – biochemical, fluorescence polarization, HIV-1, dose response (AID 434976). Details: species or system Human immunodeficiency virus 1. Background: Fluorescence polarisation rises when a labelled molecule tumbles more slowly, as on binding a larger partner.

Assay [6] has as its target Female germline-specific tumor suppressor gld-1 (Caenorhabditis elegans, UniProt Q17339). The assay is described as follows: blockers of GLD-1/TGE RNA complex formation – biochemical, fluorescence polarization, C. elegans, dose response (AID 2802).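 Also: fluorescence polarization of labeled TGE RNA bound by purified gld-1 protein.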
Assay [7] addresses DNA dC->dU-editing enzyme APOBEC-3G (Homo sapiens, UniProt Q9HC16). The assay is described as follows: Dose Response confirmation of small molecule APOBEC3G DNA Deaminase Inhibitors via a fluorescence-based single-stranded DNA deaminase assay. [Related pubchem assays (depositor defined):AID493012, AID493028]. Format: functional.
The target in assay [8] is DNA dC->dU-editing enzyme APOBEC-3A (Homo sapiens, UniProt P31941). The assay is described as follows: A3A deaminase inhibition for selectivity – biochemical, dose response (AID 504722). Format: functional.
Assay [9] can be described thus: microbe, parasite or virus in culture. Format: functional. Particulars: Mycobacterium tuberculosis.
Assay [10] can be described thus: Vero E6 cell cytotoxicity, dose response, cytotoxicity control for non-replicating M. tuberculosis project, secondary assay (AID 492998). The class given is functional, VeroE6. To be noted: Vero C1008.
The next assay can be described thus: cells. The class given is functional.
Assay [11] in a line: HepG2 cell cytotoxicity, dose response, cytotoxicity control for non-replicating M. tuberculosis project (AID 489018). The class given is functional. Particulars: Mycobacterium tuberculosis.
The nature of assay [12]: THP-1 cell cytotoxicity, dose response, cytotoxicity control for non-replicating M. tuberculosis project (AID 489025). Format: functional.
The nature of assay [13]: bead-based luminescence quenchers, dual-tagged ARNT – biochemical, AlphaScreen, cherry-pick, artefact control for ARNT-TACC3 interaction inhibitor project, dose response (AID 651705).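 Also: AlphaScreen bead proximity signal that flags compounds interfering with the detection technology; potency reflects signal decrease which marks the compound as an assay artifact.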 Format: functional.
The target in a further assay is Nonstructural protein 1 (Influenza A virus, UniProt Q194T2). The class given is functional, Influenza A virus (A/California/07/2009(H1N1)).
In the next assay the test system is Salmon testes DNA. The assay is described as follows: acridine orange-DNA binding displacement – biochemical, fluorescence polarization, cherry-picked samples, set 2, artefact control for KSHV LANA DNA-binding inhibitor project, dose response (AID 504727). Details: species or system Salmonidae.
The next assay has as its system HeLa. The experiment in a line: viability loss in HeLa cells – cell-based, 24 h, cherry-picked samples, cytotoxicity control, dose response (AID 504726).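 Also: potency for cytotoxicity as loss of luminescence signal.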 To be noted: Homo sapiens. The class given is functional.
The target of the next assay is T4, Bcl-2-like protein 10 (Homo sapiens, UniProt Q9HD36).
T4 sequence (Q9HD36 whole entry): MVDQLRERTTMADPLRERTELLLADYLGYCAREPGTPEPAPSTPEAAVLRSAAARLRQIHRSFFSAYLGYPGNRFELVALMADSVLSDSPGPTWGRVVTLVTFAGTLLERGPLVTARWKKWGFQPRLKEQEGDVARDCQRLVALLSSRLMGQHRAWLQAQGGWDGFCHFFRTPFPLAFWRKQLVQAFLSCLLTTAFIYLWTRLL
The experiment in a line: Bcl-B/TR3 peptide binding disruption – biochemical, fluorescence polarization, FITC-TR3 peptide, selectivity assay for Bfl-1 inhibitor project, primary screen (AID 748).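 Also: fluorescence polarization from a fluorescein-labelled TR3 peptide binding purified Bcl-B.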

For assay [14], the target named is T5, RNA-binding protein pos-1 (Caenorhabditis elegans, UniProt G5EF15).
T5 sequence (G5EF15 whole entry): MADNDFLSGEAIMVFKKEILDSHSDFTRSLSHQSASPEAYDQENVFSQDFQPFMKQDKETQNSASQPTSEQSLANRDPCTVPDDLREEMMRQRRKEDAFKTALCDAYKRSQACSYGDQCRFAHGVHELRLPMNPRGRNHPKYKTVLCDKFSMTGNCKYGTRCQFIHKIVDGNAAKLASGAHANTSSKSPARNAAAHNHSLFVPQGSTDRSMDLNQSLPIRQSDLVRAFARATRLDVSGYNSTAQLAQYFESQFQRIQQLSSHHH
The experiment in a line: disruptors of C. elegans POS-1 RNA interaction – biochemical, fluorescence polarization, dose response (AID 1964).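 Also: purified POS-1 fused to maltose binding protein made in E. coli; potency of compounds blocking POS-1 binding to fluorescent RNA.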

Assay [15] concerns the target T6, Polyadenylate-binding protein 1 (Homo sapiens, UniProt P11940). The assay is described as follows: MLLE domain peptide-binding blockers, IC50 – biochemical, fluorescence polarization, FITC-PAM2 peptide, dose response (AID 602259). Particulars: read-out: IC50_Mean. The class given is functional.
Assay [16] addresses T7, Zinc finger protein mex-5 (Caenorhabditis elegans, UniProt Q9XUB2).
T7 sequence (Q9XUB2 whole entry): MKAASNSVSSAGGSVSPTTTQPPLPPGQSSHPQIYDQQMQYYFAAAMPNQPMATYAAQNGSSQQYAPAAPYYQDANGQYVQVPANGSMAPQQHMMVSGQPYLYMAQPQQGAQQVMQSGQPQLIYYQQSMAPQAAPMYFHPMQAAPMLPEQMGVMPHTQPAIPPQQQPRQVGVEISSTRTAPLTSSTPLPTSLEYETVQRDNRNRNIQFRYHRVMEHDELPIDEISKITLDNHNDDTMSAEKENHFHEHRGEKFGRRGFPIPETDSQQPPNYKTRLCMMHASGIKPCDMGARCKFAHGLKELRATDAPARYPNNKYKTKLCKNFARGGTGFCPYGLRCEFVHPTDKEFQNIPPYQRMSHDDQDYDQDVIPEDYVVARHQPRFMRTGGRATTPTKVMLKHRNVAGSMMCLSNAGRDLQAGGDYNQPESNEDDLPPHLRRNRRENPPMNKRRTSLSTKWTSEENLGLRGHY
The assay is described as follows: potency of MEX-5 RNA-binding blockers – biochemical, C. elegans, fluorescence polarization, dose response (AID 1960).

Assay [17] addresses T6, Polyadenylate-binding protein 1. The assay is described as follows: MLLE binding blockers, Cy5 peptide tracer – biochemical, fluorescence polarization, Cy5-PAM2 peptide, secondary, miRNA deadenylation inhibitor project, dose response (AID 602260). The class given is functional. Particulars: read-out: IC50_Mean.
Assay [18] relates to Vero. The assay is described as follows: Vero cell viability after compound exposure – synthesized analogs, set II, cytotoxicity control for West Nile virus antiviral project, SAR follow-up (AID 2402). The class given is functional. To be noted: Chlorocebus sabaeus.
Assay [19] has as its system Vero. The experiment in a line: host cell viability loss, Vero E6 – synthesized analogs, cytotoxicity control for West Nile virus antiviral project, SAR follow-up (AID 2244). The class given is functional. To be noted: Chlorocebus sabaeus.
The test system of assay [20] is Vero. The experiment in a line: Vero 76 cell viability after compound exposure – Vero 76 cells, synthesized analogs, cytotoxicity control for West Nile virus antiviral project, SAR follow-up (AID 2414). Format: functional. To be noted: Chlorocebus sabaeus.

T6 sequence (P11940 whole entry, the tested form may be a part): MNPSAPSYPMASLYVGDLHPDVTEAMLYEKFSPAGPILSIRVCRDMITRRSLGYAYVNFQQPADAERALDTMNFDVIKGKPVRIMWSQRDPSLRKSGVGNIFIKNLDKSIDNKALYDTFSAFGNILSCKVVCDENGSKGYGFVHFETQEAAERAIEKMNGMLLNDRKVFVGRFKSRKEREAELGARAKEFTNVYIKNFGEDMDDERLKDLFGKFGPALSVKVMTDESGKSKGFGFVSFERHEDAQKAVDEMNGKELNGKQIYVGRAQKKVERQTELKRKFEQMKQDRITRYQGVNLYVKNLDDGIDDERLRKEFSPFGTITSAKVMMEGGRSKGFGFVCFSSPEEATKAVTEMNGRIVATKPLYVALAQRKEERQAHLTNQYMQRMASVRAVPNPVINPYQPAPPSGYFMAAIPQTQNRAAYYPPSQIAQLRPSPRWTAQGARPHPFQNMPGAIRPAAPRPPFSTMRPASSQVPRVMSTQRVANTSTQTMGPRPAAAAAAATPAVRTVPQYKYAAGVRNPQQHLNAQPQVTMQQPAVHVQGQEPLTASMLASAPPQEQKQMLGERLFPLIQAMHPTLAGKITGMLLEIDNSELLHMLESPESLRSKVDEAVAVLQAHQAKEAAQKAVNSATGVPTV
Sequence of DNA dC->dU-editing enzyme APOBEC-3A (P31941 whole entry): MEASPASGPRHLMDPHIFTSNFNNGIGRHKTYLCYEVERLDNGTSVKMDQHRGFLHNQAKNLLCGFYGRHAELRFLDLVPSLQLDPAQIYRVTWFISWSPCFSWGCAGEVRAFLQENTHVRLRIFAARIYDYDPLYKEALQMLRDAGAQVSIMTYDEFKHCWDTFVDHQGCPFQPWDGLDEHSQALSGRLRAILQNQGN
Sequence of Protein Rev (P04618 whole entry): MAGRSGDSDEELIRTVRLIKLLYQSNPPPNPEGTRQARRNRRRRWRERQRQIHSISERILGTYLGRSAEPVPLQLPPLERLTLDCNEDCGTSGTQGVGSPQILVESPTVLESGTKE
Sequence of Phosphoethanolamine/phosphocholine phosphatase (Q8TCT1 whole entry): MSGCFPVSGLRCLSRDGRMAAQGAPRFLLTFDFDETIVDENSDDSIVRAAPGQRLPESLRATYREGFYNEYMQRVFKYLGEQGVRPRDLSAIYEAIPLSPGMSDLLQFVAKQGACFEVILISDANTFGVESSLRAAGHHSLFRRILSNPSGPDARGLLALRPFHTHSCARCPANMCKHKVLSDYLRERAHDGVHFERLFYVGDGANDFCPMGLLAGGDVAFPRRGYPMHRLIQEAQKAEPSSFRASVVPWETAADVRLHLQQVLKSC
Sequence of Female germline-specific tumor suppressor gld-1 (Q17339 whole entry): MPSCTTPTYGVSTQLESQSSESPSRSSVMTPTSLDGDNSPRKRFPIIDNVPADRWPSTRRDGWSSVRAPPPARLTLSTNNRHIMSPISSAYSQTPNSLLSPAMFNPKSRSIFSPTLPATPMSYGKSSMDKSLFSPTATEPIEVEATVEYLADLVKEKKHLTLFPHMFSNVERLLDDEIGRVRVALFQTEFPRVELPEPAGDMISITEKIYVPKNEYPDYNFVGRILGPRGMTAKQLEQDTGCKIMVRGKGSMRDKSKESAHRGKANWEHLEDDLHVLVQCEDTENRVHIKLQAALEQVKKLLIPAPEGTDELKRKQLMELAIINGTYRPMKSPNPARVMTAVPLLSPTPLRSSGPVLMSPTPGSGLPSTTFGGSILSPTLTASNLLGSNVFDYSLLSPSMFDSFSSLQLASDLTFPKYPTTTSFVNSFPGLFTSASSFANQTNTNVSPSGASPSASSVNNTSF
Sequence of DNA dC->dU-editing enzyme APOBEC-3G (Q9HC16 whole entry): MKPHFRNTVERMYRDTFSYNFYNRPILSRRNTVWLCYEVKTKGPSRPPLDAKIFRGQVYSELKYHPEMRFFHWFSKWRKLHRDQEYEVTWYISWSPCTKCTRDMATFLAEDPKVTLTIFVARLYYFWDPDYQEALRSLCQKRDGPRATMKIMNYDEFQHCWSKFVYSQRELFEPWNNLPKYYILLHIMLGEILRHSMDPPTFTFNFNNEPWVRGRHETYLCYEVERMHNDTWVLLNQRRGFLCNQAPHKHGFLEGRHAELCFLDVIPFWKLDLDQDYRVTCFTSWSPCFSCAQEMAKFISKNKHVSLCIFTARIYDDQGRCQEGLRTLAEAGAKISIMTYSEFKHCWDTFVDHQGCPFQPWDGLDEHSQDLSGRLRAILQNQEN
Sequence of Large T antigen (P03070 whole entry): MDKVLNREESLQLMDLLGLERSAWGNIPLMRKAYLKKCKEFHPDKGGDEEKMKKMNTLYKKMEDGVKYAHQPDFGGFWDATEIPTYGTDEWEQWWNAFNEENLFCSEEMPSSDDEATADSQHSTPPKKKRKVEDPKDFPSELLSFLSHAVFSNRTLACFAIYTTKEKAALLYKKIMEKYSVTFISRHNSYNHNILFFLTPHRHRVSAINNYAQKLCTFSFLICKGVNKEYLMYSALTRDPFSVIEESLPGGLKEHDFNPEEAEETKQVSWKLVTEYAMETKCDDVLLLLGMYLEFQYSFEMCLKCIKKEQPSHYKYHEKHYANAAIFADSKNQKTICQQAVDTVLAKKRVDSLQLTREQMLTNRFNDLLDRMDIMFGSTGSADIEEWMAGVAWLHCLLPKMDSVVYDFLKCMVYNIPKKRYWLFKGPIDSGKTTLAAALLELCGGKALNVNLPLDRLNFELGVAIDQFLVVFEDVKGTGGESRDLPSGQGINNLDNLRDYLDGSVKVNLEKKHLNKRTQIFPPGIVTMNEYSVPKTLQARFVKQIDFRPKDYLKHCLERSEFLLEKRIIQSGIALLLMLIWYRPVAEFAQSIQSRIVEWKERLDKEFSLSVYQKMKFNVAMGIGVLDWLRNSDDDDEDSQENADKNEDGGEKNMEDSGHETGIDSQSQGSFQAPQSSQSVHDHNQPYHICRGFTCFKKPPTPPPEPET
Sequence of Eukaryotic translation initiation factor 4E (P63073 whole entry): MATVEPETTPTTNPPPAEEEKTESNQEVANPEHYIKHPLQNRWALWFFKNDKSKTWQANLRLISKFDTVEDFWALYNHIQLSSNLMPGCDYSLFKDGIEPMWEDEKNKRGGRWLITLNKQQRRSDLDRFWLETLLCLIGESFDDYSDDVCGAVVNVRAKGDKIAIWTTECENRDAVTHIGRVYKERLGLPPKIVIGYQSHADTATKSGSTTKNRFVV
Sequence of Glucose-6-phosphate 1-dehydrogenase (P11413 whole entry): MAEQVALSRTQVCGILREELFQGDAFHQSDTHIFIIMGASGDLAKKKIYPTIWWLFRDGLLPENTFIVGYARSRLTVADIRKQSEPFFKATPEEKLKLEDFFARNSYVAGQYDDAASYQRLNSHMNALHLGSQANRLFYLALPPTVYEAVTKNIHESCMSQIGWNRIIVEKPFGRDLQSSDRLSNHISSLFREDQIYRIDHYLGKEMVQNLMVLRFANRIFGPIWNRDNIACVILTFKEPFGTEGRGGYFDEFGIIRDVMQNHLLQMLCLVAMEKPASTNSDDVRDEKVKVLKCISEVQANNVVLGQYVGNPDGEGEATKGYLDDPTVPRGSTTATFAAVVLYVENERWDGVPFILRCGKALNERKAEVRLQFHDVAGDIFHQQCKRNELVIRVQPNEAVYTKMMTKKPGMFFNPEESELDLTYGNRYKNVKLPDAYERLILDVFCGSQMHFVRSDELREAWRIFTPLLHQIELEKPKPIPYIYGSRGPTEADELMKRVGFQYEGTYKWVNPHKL
Sequence of Nonstructural protein 1 (Q194T2 whole entry): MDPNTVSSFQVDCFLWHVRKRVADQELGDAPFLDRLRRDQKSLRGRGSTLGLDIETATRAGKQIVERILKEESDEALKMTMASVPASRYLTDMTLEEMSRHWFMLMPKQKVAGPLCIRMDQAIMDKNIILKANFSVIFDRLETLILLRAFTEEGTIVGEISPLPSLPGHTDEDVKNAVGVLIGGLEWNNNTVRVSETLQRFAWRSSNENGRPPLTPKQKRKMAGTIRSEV

On to `O=c1c2ccccc2sn1-c1cc(S(=O)(=O)N2CCOCC2)ccc1N1CCCC1`, for which the IC50 in assay [1] is 10.7 µM (inactive); in assay [2] it was 7.51 µM (active); in assay [3] it was 11 µM (active); in assay [4], 34.5 µM (inactive); in assay [5] it was 14.3 µM (active); on Phosphomannomutase 2, 29.8 µM (active). Besides, at Large T antigen, the IC50 is 11.7 µM (active).

As to `CC(C)CCN(C(=O)CCCSc1nc2ccccc2[nH]1)c1c(N)n(Cc2ccccc2)c(=O)[nH]c1=O`, the IC50 on Protein Rev was > 8.38 µM (active); in assay [6], 3.12 µM (active).

Take `COc1ccc(OCc2nnc(S)n2Cc2ccco2)cc1`: the IC50 was 3.88 µM (active) in assay [7] and > 100 µM (inactive) in assay [8].

Turning to `O=C(CCS(=O)(=O)c1ccc(F)cc1)Nc1nc(-c2ccccn2)cs1`, the CC50 was 21.1 µM (active) in assay [9], 12 µM (active) in assay [10], > 20 µM (active) in assay [11] and 23.6 µM (active) in [12]. The IC50 is 6.21 µM (active) in “cells” and 21.5 µM (active) at Nonstructural protein 1. Also, in [13], the half-maximal activity concentration (AC50) was 99.2 µM (active).

Consider `Cc1nnc2sc(-c3csc4c3CCCC4)nn12`, for which the half-maximal activity concentration (AC50) in the assay with Salmon testes DNA was 73.6 µM (active); with HeLa, 26.3 µM (active).

Regarding `O=C1NC(=O)[C@]2(Cc3ccccc3N3CCN(c4ccccc4)CC32)C(=O)N1c1ccccc1` (stereo partly specified), on Bcl-2-like protein 10, the IC50 is 54 µM (inactive).

In the case of `COc1ccc(NC(=O)Nc2cc(C)cc(C)c2)cn1`, the EC50 in [14] was 186 µM (active); in [16] it was 27.4 µM (active). For the same compound, the IC50 is 11.4 µM (not active) on Protein Rev, 21.8 µM (inactive) in assay [15], > 66 µM (inactive) in assay [17] and 7.15 µM (active) in assay [6].

For the compound `O=C(CSc1nc2ccccc2c(=O)n1-c1ccc(F)cc1)Nc1cccc2ccccc12`, the figures for the CC50 in the assay on Vero [18], in the assay with Vero [19] and with Vero [20] were > 100 µM (active), > 40 µM (active) and > 66.6 µM (active), respectively.

In the case of `O=c1c2ccccc2sn1-c1cccc(C(F)(F)F)c1`, the IC50 in assay [1] was 11.6 µM (inactive); in assay [2] it was 23.7 µM (active); at Phosphomannomutase 2 it was > 100 µM (inactive).

As for `CC(=O)c1c(CC(=O)O)[nH]n(-c2nc3ccccc3s2)c1=O`, on Bcl-2-like protein 10, the IC50 was 71.2 µM (inactive).

Take `Fc1cccc(Cl)c1/C=N/n1c(S)nnc1-c1cccnc1`: the IC50 in assay [7] is 2.73 µM (active); in [8] it was > 100 µM (inactive).

The term AC50 denotes the concentration at which the activity in the assay is half-maximal. As usually defined, the EC50 is the concentration that produces a half-maximal response.
